Source: patent publication US8324191B2, “Combined calcium, magnesium and vitamin D supplements” (Biolink Life Sciences, Inc, priority 2008, dated 2012)
Read-outs that look alike come from different tables or passages of the source.

Tests used:
[1] = conventional magnesium salts; Firoz and Graber 2001; cited from earlier work
[2] = 250-750 mg magnesium daily as magnesium hydroxide, 2 years; cited from earlier work
[3] = cited from earlier work
[4] = doses of 1 g calcium citrate daily; cited from earlier work
[5] = 1 gram calcium/day as the citrate, 1,471 healthy older women; cited from earlier work
[6] = Availability of magnesium and lipoate ions from aqueous suspensions of the salt; type: physicochemical; conditions: aqueous solutions, pH about 4 to about 8
Excerpt: Thus, its bioavailability is unexpectedly high, as compared to conventional, water-insoluble magnesium salts. Further, R-(+)-alpha-lipoic acid is a widely distributed physiological antioxidant that combines free radical scavenging properties with an ability, after intracellular reduction to dihydrolipoic acid, to regenerate the levels of other nonenzymatic and enzymatic antioxidants, including glutathione (GSH), ascorbate, α-tocopherol, catalase and GSH peroxidase. The physiological form of R-(+)-α-lipoate, the R-(+)-enantiomer, is present in all eukaryotic and prokaryotic cells.

[7] = cited from earlier work; remark: listed apart in the source

For `[Cl-].[Cl-].[Mg+2]` [Magnesium chloride], the “Bioavailability (as fractional absorption of administered dose)” value [1] is given as 12%.

For `[Mg+2].[OH-].[OH-]` [Magnesium hydroxide], the bone density [2] is given as “significant increase in bone density”, the fractures [2] is given as “prevented fractures” and the “Bioavailability (as fractional absorption of administered dose)” value [1] is given as 4%.

In the case of `CC(O)C(=O)[O-].CC(O)C(=O)[O-].[Mg+2]` (stereo not drawn) [Magnesium lactate], the “Bioavailability (as fractional absorption of administered dose)” value [1] is given as 12%.

For `[O]=[Mg]` [Magnesium oxide], the “Bioavailability (as fractional absorption of administered dose)” value [1] is listed as 4%.

In the case of `O=C(O)CCCCC1CCSS1` (stereo not drawn) [R-(+)-alpha-lipoic acid], the storage life ([3]; closed and sealed amber container at refrigerated temperatures) is listed as “within a few months”.

In the case of `O=C(O)CCCCC1CCSS1` (stereo not drawn) [RS-Alpha-lipoic acid, RS-alpha-lipoic acid], the storage life ([3]; closed and sealed amber container at room temperature) is given as “a year or more”.

In the case of `O=C([O-])CC(O)(CC(=O)[O-])C(=O)[O-].O=C([O-])CC(O)(CC(=O)[O-])C(=O)[O-].[Ca+2].[Ca+2].[Ca+2]` [calcium citrate], the “risk for myocardial infarction, stroke and death” value [4] is listed as “increase risk”.

For `[Ca]` [calcium], the “effect on bone density” value [5] is given as “beneficial effect on bone density”.

For Magnesium R-(+)-alpha-lipoate, the “availability of magnesium and R-(+)-alpha-lipoate ions from suspensions” value [6] was “available”.

For Magnesium citrate, the “Bioavailability (as fractional absorption of administered dose)” value [1] is given as 12%.

In the case of vitamin D, the fracture benefit ([7]; 400 IU per day) is given as “failed to demonstrate any fracture benefit”, the “reduction of risk of any non-vertebral fracture” value ([7]; 700 to 800 IU per day) is given as 23% and the “reduction of risk of hip fracture” value ([7]; 700 to 800 IU per day) is given as 26%.
